From ChEMBL document CHEMBL1201862, “PubChem BioAssay data set” (2004) come the findings set out here.

Calls of active or inactive are those of the source. Some results are limits rather than exact numbers.

By AC50 is commonly meant the concentration at which the activity in the assay is half-maximal. In general, IC50 refers to the concentration that inhibits the measured activity by half. The term EC50 denotes the concentration that produces a half-maximal response. One may read the Ki as the dissociation constant of the complex between target and ligand, obtained from inhibition or displacement. The term pKi denotes the Ki on a negative log10 scale, so that one unit is a factor of ten. The low end stands for a high Ki, the high end for a low Ki.

For test [1], the target named is T1, Histone-lysine N-methyltransferase NSD2 (Homo sapiens, UniProt O96028).
T1 sequence (O96028 whole entry): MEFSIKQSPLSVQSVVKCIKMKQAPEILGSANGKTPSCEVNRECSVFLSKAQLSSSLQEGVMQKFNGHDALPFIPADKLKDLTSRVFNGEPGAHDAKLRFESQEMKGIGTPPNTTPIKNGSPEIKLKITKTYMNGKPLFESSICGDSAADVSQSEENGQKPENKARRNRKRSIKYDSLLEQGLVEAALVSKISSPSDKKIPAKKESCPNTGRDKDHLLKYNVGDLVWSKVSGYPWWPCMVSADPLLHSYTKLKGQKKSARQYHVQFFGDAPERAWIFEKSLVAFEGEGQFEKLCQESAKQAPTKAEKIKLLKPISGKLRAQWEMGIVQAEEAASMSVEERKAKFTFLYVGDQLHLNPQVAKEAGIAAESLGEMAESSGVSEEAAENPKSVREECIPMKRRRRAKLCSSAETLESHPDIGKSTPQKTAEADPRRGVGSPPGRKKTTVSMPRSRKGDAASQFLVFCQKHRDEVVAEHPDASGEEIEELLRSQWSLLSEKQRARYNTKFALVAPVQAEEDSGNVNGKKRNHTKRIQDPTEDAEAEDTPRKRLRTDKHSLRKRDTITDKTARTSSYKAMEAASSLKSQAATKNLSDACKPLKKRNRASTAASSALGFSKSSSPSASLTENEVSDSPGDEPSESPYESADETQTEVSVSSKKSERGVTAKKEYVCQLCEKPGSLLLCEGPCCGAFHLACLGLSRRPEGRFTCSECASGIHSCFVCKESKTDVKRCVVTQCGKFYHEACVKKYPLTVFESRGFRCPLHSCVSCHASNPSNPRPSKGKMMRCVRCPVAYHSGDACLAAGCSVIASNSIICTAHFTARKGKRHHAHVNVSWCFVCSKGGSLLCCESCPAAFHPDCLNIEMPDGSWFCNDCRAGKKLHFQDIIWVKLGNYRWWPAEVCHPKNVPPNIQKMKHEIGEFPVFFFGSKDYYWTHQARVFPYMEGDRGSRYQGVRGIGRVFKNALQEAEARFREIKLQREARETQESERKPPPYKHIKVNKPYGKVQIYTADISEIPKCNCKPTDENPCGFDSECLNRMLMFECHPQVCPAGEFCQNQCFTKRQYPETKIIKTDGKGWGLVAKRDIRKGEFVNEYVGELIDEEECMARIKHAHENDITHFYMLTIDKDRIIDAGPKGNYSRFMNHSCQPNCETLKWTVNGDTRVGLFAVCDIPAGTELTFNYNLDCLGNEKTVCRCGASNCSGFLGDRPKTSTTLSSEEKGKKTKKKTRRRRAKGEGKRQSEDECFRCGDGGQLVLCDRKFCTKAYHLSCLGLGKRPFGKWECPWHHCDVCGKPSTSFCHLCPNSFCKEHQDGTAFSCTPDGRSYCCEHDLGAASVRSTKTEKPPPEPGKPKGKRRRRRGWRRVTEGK
The format is biochemical.

Test [2] deals with T2, Tyrosine-protein phosphatase non-receptor type 7 (Homo sapiens, UniProt P35236).
T2 sequence (P35236 whole entry): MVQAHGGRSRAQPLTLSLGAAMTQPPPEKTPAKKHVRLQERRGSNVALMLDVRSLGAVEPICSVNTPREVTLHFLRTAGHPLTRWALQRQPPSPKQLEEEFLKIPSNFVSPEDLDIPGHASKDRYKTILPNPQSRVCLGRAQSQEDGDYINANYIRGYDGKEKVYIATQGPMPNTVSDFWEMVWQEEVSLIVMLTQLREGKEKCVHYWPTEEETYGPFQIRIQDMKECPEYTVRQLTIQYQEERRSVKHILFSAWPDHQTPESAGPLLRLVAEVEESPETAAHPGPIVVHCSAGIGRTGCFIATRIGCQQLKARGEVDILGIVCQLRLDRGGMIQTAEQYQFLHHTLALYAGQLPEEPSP
Format: functional.

Test [3] deals with Heat shock cognate 71 kDa protein (Homo sapiens, UniProt P11142). Description: In Vitro Hsc70 Dose Response Fluorescence Polarization Assay. [Related pubchem assays: 1072 ]. For orientation: In fluorescence polarisation assays a small probe gives low polarisation when free and higher when bound to something large.
Test [4] addresses cAMP-dependent protein kinase catalytic subunit PRKX (Homo sapiens, UniProt P51817). The format is functional.
Test [5] addresses STE20-like serine/threonine-protein kinase (Homo sapiens, UniProt Q9H2G2). Format: functional.
Test [6] addresses Serine/threonine-protein kinase PLK4 (Homo sapiens, UniProt O00444). Format: functional.
In test [7] the target is Vascular endothelial growth factor receptor 2 (Homo sapiens, UniProt P35968). The format is functional.
Another test has as its target Aurora kinase A (Homo sapiens, UniProt O14965). Format: functional.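 Further: value from the Navigating the Kinome kinase panel profiling, panel entry STK6.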
Test [8] deals with MAP/microtubule affinity-regulating kinase 3 (Homo sapiens, UniProt P27448). The format is functional.
For test [9], the target named is Cyclin-dependent kinase 5 (Homo sapiens, UniProt Q00535). Format: functional.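 Further: CDK5 measured as one member of a kinase profiling panel.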
Test [10] deals with Cyclin-dependent kinase 2 (Homo sapiens, UniProt P24941). Format: functional.
The target of test [11] is Casein kinase I isoform delta (Homo sapiens, UniProt P48730). Format: functional.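 Further: measured as one member (CSNK1D) of a kinome panel.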
Test [12] has as its target Serine/threonine-protein kinase pim-1 (Homo sapiens, UniProt P11309). Format: functional.
For test [13], the target named is Macrophage colony-stimulating factor 1 receptor (Homo sapiens, UniProt P07333). Format: functional.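 Further: value comes from the Navigating the Kinome screening panel, CSF1R member.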
A further test addresses SRSF protein kinase 1 (Homo sapiens, UniProt Q96SB4). Format: functional.
Test [14] addresses High affinity nerve growth factor receptor (Homo sapiens, UniProt P04629). The format is functional.
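Wherever EC50 is given: HEK293 cells transfected with hcDAF12 and a DAF12 luciferase reporter; potency of agonists activating the hcDAF12 luciferase reporter.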

Sequence of Cyclin-dependent kinase 5 (Q00535 whole entry): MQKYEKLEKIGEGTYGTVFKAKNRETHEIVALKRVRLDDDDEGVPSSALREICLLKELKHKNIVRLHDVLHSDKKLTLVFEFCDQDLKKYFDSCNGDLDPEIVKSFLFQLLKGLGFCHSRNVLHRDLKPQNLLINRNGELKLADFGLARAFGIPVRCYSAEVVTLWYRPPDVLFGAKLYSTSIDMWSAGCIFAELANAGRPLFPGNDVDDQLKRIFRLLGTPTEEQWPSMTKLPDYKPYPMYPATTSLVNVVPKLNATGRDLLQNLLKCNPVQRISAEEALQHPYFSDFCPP
Sequence of Heat shock cognate 71 kDa protein (P11142 whole entry): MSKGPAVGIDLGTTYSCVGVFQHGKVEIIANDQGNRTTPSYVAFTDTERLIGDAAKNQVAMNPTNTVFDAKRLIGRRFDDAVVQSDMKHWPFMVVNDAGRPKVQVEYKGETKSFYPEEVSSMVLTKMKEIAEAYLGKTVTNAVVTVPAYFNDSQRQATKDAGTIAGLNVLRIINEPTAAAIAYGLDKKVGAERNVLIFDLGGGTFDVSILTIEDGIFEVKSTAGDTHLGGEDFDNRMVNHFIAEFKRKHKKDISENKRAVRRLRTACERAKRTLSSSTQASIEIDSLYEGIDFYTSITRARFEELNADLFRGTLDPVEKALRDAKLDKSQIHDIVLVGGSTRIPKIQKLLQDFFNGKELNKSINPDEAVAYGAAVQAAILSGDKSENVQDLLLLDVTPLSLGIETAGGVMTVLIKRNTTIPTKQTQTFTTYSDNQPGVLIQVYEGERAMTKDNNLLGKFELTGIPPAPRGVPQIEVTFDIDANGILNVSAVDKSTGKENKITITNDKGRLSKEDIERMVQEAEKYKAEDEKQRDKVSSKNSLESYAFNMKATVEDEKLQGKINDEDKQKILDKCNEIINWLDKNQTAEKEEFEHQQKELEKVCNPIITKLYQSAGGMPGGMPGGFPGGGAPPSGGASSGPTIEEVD
Sequence of Macrophage colony-stimulating factor 1 receptor (P07333 whole entry): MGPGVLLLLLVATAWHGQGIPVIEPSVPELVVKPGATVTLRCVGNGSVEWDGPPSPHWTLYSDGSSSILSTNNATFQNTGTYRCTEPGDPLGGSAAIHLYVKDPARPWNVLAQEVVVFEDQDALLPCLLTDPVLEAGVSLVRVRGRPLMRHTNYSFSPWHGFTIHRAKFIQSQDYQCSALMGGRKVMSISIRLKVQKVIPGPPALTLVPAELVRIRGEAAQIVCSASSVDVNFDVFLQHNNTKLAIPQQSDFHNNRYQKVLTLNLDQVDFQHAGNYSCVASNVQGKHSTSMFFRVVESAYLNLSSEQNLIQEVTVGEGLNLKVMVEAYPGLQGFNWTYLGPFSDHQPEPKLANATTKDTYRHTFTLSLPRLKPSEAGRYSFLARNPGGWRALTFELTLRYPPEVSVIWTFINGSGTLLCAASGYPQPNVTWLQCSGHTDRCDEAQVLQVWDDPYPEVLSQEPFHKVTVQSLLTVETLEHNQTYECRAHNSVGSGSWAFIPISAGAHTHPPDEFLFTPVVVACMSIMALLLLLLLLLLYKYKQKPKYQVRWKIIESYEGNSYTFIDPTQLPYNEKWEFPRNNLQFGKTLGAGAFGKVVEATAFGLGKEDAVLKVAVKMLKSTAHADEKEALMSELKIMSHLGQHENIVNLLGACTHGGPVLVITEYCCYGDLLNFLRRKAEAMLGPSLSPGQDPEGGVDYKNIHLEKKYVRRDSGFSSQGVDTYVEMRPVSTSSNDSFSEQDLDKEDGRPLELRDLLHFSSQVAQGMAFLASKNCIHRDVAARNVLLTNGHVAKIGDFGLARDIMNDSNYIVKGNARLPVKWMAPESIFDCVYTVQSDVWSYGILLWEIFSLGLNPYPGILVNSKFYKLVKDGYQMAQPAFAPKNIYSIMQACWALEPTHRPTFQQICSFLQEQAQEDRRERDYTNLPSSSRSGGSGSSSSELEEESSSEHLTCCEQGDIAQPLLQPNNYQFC
Sequence of Serine/threonine-protein kinase PLK4 (O00444 whole entry): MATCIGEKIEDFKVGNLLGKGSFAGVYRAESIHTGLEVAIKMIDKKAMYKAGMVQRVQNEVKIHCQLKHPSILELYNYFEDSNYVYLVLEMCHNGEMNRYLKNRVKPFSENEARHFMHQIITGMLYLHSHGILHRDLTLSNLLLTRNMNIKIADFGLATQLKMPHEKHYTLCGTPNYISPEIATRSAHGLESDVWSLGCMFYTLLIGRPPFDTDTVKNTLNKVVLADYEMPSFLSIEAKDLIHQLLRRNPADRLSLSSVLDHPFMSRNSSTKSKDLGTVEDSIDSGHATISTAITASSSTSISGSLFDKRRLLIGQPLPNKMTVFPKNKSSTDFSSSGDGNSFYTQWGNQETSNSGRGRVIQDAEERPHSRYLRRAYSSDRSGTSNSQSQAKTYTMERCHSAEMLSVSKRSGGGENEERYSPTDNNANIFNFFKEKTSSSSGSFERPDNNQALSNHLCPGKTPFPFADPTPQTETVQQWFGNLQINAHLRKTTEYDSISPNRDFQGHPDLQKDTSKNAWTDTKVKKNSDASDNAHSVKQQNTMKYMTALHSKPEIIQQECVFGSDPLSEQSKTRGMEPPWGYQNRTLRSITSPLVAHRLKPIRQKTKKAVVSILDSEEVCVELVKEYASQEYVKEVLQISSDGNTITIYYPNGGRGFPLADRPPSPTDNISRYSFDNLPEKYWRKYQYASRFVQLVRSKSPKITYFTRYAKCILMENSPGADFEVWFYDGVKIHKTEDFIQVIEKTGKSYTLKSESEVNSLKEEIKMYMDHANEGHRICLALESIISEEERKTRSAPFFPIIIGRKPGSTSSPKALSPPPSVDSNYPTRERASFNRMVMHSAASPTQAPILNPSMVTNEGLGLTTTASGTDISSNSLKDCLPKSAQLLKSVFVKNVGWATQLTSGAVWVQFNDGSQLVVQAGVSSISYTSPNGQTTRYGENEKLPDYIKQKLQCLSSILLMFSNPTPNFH
Sequence of STE20-like serine/threonine-protein kinase (Q9H2G2 whole entry): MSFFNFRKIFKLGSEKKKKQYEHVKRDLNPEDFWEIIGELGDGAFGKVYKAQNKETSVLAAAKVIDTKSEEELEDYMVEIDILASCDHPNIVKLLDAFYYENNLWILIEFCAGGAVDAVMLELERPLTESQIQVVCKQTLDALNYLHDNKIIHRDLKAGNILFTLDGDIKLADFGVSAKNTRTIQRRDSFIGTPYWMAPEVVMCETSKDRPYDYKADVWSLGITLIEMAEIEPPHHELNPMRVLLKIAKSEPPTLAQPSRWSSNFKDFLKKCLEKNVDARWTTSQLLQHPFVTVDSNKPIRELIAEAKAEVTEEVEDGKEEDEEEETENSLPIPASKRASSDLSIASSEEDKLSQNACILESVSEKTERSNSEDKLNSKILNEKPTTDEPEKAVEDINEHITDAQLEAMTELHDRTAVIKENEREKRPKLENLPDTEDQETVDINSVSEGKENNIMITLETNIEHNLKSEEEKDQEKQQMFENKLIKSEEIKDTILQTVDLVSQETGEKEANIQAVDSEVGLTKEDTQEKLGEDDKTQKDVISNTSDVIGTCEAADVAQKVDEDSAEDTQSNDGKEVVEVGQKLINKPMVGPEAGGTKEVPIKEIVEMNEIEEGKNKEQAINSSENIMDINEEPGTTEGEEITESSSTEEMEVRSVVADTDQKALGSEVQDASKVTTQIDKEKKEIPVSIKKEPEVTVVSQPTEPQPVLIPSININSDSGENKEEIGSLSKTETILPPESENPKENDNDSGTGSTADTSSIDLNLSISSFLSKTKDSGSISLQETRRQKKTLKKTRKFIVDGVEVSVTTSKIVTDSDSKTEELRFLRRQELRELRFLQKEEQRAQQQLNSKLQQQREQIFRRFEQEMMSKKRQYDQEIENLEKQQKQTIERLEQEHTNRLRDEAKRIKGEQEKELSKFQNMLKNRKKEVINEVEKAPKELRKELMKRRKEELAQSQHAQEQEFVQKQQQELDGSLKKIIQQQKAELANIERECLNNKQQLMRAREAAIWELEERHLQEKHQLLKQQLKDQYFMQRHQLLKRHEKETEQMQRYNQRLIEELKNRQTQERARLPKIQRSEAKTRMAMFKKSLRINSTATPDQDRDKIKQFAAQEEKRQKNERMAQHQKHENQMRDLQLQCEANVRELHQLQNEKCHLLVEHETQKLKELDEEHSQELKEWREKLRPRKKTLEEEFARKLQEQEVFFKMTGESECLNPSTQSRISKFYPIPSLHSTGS
Sequence of Serine/threonine-protein kinase pim-1 (P11309 whole entry): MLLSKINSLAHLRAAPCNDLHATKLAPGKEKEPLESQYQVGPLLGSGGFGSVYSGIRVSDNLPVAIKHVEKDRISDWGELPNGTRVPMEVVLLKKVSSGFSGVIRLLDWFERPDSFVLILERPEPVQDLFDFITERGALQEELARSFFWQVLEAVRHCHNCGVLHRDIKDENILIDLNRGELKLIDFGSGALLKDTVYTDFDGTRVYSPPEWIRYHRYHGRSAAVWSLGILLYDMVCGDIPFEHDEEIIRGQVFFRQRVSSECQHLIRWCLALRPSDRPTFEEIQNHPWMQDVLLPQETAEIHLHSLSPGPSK
Sequence of cAMP-dependent protein kinase catalytic subunit PRKX (P51817 whole entry): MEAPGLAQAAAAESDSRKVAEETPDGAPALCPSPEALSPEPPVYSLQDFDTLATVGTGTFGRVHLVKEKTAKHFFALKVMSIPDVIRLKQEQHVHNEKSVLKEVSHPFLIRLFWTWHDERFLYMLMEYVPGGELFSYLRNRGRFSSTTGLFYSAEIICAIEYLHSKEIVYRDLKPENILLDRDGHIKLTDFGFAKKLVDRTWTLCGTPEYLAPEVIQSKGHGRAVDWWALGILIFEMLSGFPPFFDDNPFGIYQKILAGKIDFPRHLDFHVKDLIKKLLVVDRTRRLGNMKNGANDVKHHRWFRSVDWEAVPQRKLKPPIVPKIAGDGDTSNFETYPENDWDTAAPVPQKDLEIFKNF

Take `O=C1C=C(N2CCCCC2)c2ccccc2C1=O`: the AC50 in test [1] is 1.11 µM (active).
For `O=C(O)C1Nc2c(O)cc(Cl)c([N+](=O)[O-])c2C2C=CCC12` (centres undefined), the IC50 in test [2] was 3.84 µM (active); in test [3], 175 µM (active).
As for `Clc1ccc2nc(-c3ccc(Br)s3)cn2c1`, in “cells”, the EC50 was > 67.5 µM (inactive).
Consider `Cc1n[nH]c2ccc(-c3cncc(OCC(N)Cc4cccc(Cl)c4)c3)cc12` (centres undefined), for which the Ki in test [4] is 0.001 µM (active); in [5], 1 µM (active); in test [6] it was 1.26 µM (active); in test [7], 3.98 µM (active); at Aurora kinase A, 0.631 µM (active); in [8], 0.251 µM (active). Besides, the Ki was 0.0126 µM (active) in test [9]; 0.0251 µM (active) in test [10]; 0.0316 µM (active) in test [11]; 0.00501 µM (active) in test [12]; > 2.51 µM (inactive) in test [13]; > 5.01 µM (inactive) at SRSF protein kinase 1. In [14], the Ki is > 2.51 µM (inactive). The pKi was 7.9 in [9] and 7.6 in test [10].
